Experimental findings from patent EP1234575A1, “Furan fatty acids for improving the efficiency of cytostatic and/or radiation therapy” (Deigner, Hans-Peter, Dr., priority 2001, dated 2002) are described below.

Data set [1] has as its system Nierenkarzinomzelllinie (RENCA). As to the kind of experiment: Apoptosis in RENCA renal carcinoma cells: FFS alone or 2 h FFS pre-incubation followed by a cytostatic (YO-PRO-1 positive cells, DNA laddering). The format is cell-based. The note with it: for Zahl apoptotischer Zellen bei 50 nM relativ zu 100 nM: 50 nM FFS versus 100 nM FFS, plus Daunorubicin; for Zahl apoptotischer Zellen bei 50 nM relativ zu 100 nM / höhere Anzahl apoptotischer Zellen im Vergleich zur Kontrolle mit Daunorubicin alleine / Konzentrationsabhängigkeit des prozentualen Anteils apoptotischer Zellen: Renca-Zellen; for höhere Anzahl apoptotischer Zellen im Vergleich zur Kontrolle mit Daunorubicin alleine: 1000 nM FFS plus Daunorubicin (1 µM per Figur 3); for Konzentrationsabhängigkeit des prozentualen Anteils apoptotischer Zellen: FFS 0 to 1000 nM plus Daunorubicin. An excerpt:
(§1) Untersuchungen der pro- bzw. antiapoptotischen Wirkung der FFS wurden an einer Nierenkarzinomzelllinie (RENCA; Murphy et al., J. Natl. Cancer Inst. 50: 1013, 1973) durchgeführt. Dazu wurden die Zellen 22 Stunden zum einen mit einem Zytostatikum, zum anderen mit der entsprechenden FFS sowie einer Kontrolle und einer Kombination aus FFS und Zytostatikum inkubiert. Für die Substanzkombination aus FFS und Zytostatikum wurden die Zellen zwei Stunden mit der jeweiligen FFS vorinkubiert, anschließend das Zytostatikum zugegeben und danach für 24 Stunden im Brutschrank inkubiert. Die verwendeten Konzentrationen sind in Figur 3 angegeben. Diese Untersuchungen wurden mit den Verbindungen 11a/11b, 12b, 6b, 13b und 14 sowie jeweils für jedes Zytostatikum getrennt durchgeführt. Es zeigte sich bei keiner der getesteten FFS (alleinige Zugabe) eine signifikante Zunahme der Zahl apoptotischer Zellen gegenüber der Kontrolle. Bei Inkubation der Zellen mit einer FFS und anschließender Zytostatikumgabe konnten unterschiedliche Effekte beobachtet werden .
Bei den alkin-substituierten FFS wurde bei Verwendung von Daunorubicin in Kombination mit 11a eine Zunahme von 60% und in Kombination mit 11b eine Abnahme der Anzahl apoptotischer Zellen gemessen. Bei Verwendung von Vinblastin als Zytostatikum nahm bei beiden FFS 11a und 11b die Zahl apoptotischer Zellen von 60% bzw. 160% zu.
(§2) Da die FFS 11a und 11b als einzige aller synthetisierten FFS eine signifikante Zunahme an apoptotischen Zellen bei Inkubation in Kombination mit einem Zytostatikum zeigten, wurde untersucht, ob dieser Effekt von der Konzentration der FFS abhängt. Daher wurde das oben beschriebene Experiment an Renca-Zellen unter den gleichen Bedingungen, aber mit jeweils verschiedenen Konzentrationen von 11a bzw. 11b im Bereich von 0 bis 1000 nM durchgeführt (Figur 3). […] Der prozentuale Anteil apoptotischer Zellen nahm mit steigender FFS Konzentration zu und mit fallender ab. Bei Inkubation mit einer 1000 nM-Lösung wurde eine 6.1 bzw. 5.2-fach höhere Anzahl apoptotischer Zellen im Vergleich zur Kontrolle mit Daunorubicin alleine festgestellt. […] Bei Inkubation der Zellen mit FFS ohne Zytostatikum wurden auch bei hoher FFS Konzentration keine signifikante Zu- bzw. Abnahme der Apoptoserate festgestellt. Die Apoptoserate wurde routinemäßig durch Messung YO-PRO-1 positiver Zellen^5,6 DNA-Leiter-Untersuchungen ("DNA-laddering") ermittelt.

The test system of a further data set is Morris-Hepatom. The data set is described as follows: Apoptosis in Morris hepatoma cells: FFS alone or FFS pre-incubation followed by a cytostatic. Format: cell-based, Ratte.
From the text: as §1
Aufgrund dieser Effekte wurde mit den alkin-substituierten FFS 11a und 11b an einer weiteren Karzinomzelllinie (Morris-Hepatom; Tumorbank DKFZ Heidelberg, TZB No. 620143, MH TC 5123, histologischer Typ: Hepatom, Herkunft/Spezies: Ratte, Buffalo) die oben beschriebenen Untersuchungen durchgeführt. Die Konzentrationen der verwendeten FFS bzw. Zytostatika sind in Figur 4 angegeben. FFS alleine zeigten auch hier keine Effekte. Bei einer Kombination aus Daunorubicin mit der FFS 11a bzw. 11b stieg die Zahl apoptotischer Zellen um 130% bzw. 60% und bei einer Kombination FFS 11a bzw. 11b mit Vinblastin um 85% bzw. 50% .
as §2

The mark [2] stands for this setting: 2 h FFS pre-incubation, then Daunorubicin, 24 h, RENCA.
The mark [3] stands for this setting: 2 h FFS pre-incubation, then Vinblastin, 24 h, RENCA.

Take `CCC(=O)/C=C/c1ccc(C#CCCCCCCCCC(=O)OC)o1` [11b, 11-[5-(3-Oxo-1-pentenyl)-furan-2-yl]-10-undecinsäure-methylester]: in data set [1], the “Zahl apoptotischer Zellen bei 50 nM relativ zu 100 nM” value is given as “ca. halb so groß”, the “höhere Anzahl apoptotischer Zellen im Vergleich zur Kontrolle mit Daunorubicin alleine” value is 5.2 fach and the “Konzentrationsabhängigkeit des prozentualen Anteils apoptotischer Zellen” value is recorded as “deutliche Konzentrationsabhängigkeit”. For the same compound, in data set [1] (setting [2]), the “Anzahl apoptotischer Zellen (change, in words)” value was “Abnahme”. Besides, in data set [1] (setting [3]), the “Zunahme der Zahl apoptotischer Zellen” value amounted to 160%. For the same compound, the “Anstieg der Zahl apoptotischer Zellen” value in the data set on Morris-Hepatom (FFS combined with Daunorubicin) turned out to be 60%. Moreover, the “Anstieg der Zahl apoptotischer Zellen” value with Morris-Hepatom (FFS combined with Vinblastin) was found to be 50%.

For `CCC(=O)/C=C/c1ccc(/C=C\CCCCCCCCC(=O)OC)o1` [12b], the “Anzahl apoptotischer Zellen (change, in words)” value in data set [1] (setting [2]) and in data set [1] (setting [3]) was “leichter Rückgang” each time.

For `CCC(=O)CCc1ccc(CCCCCCCCCCC(=O)OC)o1` [13b, 11-[5(3-Oxo-pentyl)-furan-2-yl]-undecansäure-methylester], the “Anzahl apoptotischer Zellen (change, in words)” value in data set [1] (setting [2]) and in data set [1] (setting [3]) was “leichter Rückgang” throughout.

As for `COC(=O)CCCCCCCCC#Cc1ccc(/C=C/C(C)=O)o1` [11a, 11-[5-(3-Oxo-1-butenyl)-furan-2-yl]-10-undecinsäuremethylester], in data set [1], the “Zahl apoptotischer Zellen bei 50 nM relativ zu 100 nM” value was “ca. halb so groß”, the “höhere Anzahl apoptotischer Zellen im Vergleich zur Kontrolle mit Daunorubicin alleine” value came out at 6.1 fach and the “Konzentrationsabhängigkeit des prozentualen Anteils apoptotischer Zellen” value was “deutliche Konzentrationsabhängigkeit”. The “Zunahme der Anzahl apoptotischer Zellen” value in data set [1] (setting [2]) came out at 60%. In data set [1] (setting [3]), the “Zunahme der Zahl apoptotischer Zellen” value is 60%. Further, in the data set with Morris-Hepatom (FFS combined with Daunorubicin), the “Anstieg der Zahl apoptotischer Zellen” value worked out at 130%. For the same compound, in the data set with Morris-Hepatom (FFS combined with Vinblastin), the “Anstieg der Zahl apoptotischer Zellen” value was 85%.

As to `CCC(=O)/C=C/c1ccc(CCCCCCCCCCC(=O)OC)o1` [6b, 11-[5(3-Oxo-pentenyl)-furan-2-yl]-undecansäure-methylester], the “Anzahl apoptotischer Zellen (change, in words)” value in data set [1] (setting [2]) and in data set [1] (setting [3]) was “leichter Rückgang” in each case.
